Data taken from paper PMC9841523 (Journal of Medicinal Chemistry, 2022).
Entries after “also recorded” stand apart in the source; their conditions may differ.

Tests used:
NCI-H2122 NSCLC CDX = NCI-H2122 NSCLC CDX model; assay type: in vivo; conditions: RMC-6272 10 mg/kg ip once weekly; sotorasib 100 mg/kg po qd; single agents or combination
Procedure: groups when mean tumor volume reached 400–600 mm 3. Tumor and plasma samples were collected for PK and PD analysis at indicated time points after a single dose of indicated […]
doses. Everolimus was formulated in v/v/v/, 30/5/65 Propylene glycol/Tween 80/H 2O.
NCI-H2122 xenograft studies. Female Balb/c nude mice (Beijing V.R Biotechnology Co. […]
per inoculation. When mean tumor volume reached between 150–200 mm 3, mice were […]
Transcutol/Solutol HS 15/H 2O. Sotorasib (AMG 510) was administered by oral gavage at 100 mg/kg daily and formulated in 2% (w/v) HPMC E-50, 0.5% Tween 80 in 50 mM sodium citrate […]
In vivo pharmacodynamics. Snap frozen tumors collected were homogenized with MSD complete lysis buffer (as prepared according to Meso Scale Discovery kit protocol) using PreCellys Bead Shaker (Bertin Instruments) according to manufacturer's protocol. Phospho-4E-BP1(Thr37/46) Whole Cell Lysate Kit (Meso Scale Discovery) was used to quantify phosphorylation of 4E-BP1 in the tumors according to manufacturer's protocol.
Expression and purification of FKBP12, FRB domain, and RHEB-GTPγS. DNA pET28

[1] = test system: AKT S473 phosphorylation (mTORC2); assay: AlphaLISA/MSD analysis of AKT phosphorylation in MDA-MB-468 cells; assay type: cell-based; conditions: for IC50: Homo sapiens, MDA-MB-468 cells, read-out: pAKT IC50
Procedure: (§1) Cell culture and reagents. Cells were obtained from ATCC, grown in appropriate medium supplemented with 10% fetal bovine serum and 1% penicillin/streptomycin and maintained at 37 °C in a humidified incubator at 5% CO 2.
(§2) AlphaLISA and MesoScale Discovery (MSD) analysis of 4EBP1, S6K and AKT phosphorylation. mTOR substrate phosphorylation in MDA-MB-468 cells was assayed using AlphaLISA SureFire Ultra kits for p4EBP1 Thr37/46, p-P70S6K Thr389 and p-AKT1/2/3 Ser473 (PerkinElmer), and MSD Multi-Array Assay Systems for Phospho-4EBP1 (Thr37/46) and Phospho-AKT (Ser473) (MSD). Cells were seeded at 25,000 cells per well and exposed the next day to serial three-fold dilutions of compounds in complete medium with 0.1% dimethylsulfoxide (DMSO). After indicated incubation times, cells were lysed and AlphaLISA or MSD performed according to the manufacturers’ protocols. Samples were read using an EnVision Multilabel Plate Reader (PerkinElmer) using standard AlphaLISA settings or using an MSD plate reader. Data were plotted as a function of logM [compound] with a sigmoidal concentration response (variable slope) model fitted to the data to estimate the inhibitor half-maximum effective concentration (EC 50) in Prism 7 (GraphPad). Alternatively, results were analyzed as percentage of control in which 0% was set as signal from 1 μM Torin1 and 100% was set as the mean of DMSO wells on each plate, and inhibitor EC 50 was estimated as described

[2] = test system: 4EBP1 T37/T46 phosphorylation (mTORC1); assay: AlphaLISA/MSD analysis of 4EBP1 phosphorylation in MDA-MB-468 cells; assay type: cell-based; conditions: for IC50: Homo sapiens, read-out: p4EBP1 IC50
Procedure: as §1, §2

p-P70S6K Thr389 = assay: AlphaLISA/MSD analysis of S6K phosphorylation in MDA-MB-468 cells; assay type: cell-based; conditions: Homo sapiens; MDA-MB-468 cells; read-out: pS6K IC50
Procedure: as §1, §2

tumor p4EBP1 = assay: Tumor PD after a single dose in the MCF-7 CDX model; assay type: in vivo, mice; conditions: MCF-7 CDX
FKBP12 = biological target: T1, FKBP12 (Homo sapiens, UniProt P62942); assay: FKBP12 binding affinity, fluorescent probe displacement assay
T1 construct: Proteros biostructures GmbH (ran the assay)
Procedure: same conditions, with 6 nM fluorescent probe present. 50 nL compound in DMSO was added to
11 different concentrations of compound with a 3-fold dilution factor were tested. After a 6 h incubation at room temperature acceptor fluorescence was read on a plate reader.
displacement) were calculated using standard fitting algorithms. The reporter probe is used at a concentration reflecting the tenfold concentration of its own Kd (probe) value. Thus, according to the Cheng Prusoff equation, the Kd value can be calculated with Kd = IC 50 / (1 + (([10 x Kd probe]) / [Kd probe]) = IC 50 / 11.
TR–FRET ternary complex assay. Assay was performed by Thermo Fisher Scientific, using a modification of a previously described protocol. 1 A homogeneous assay mixture was prepared
Thermo Fisher Scientific catalog no. A15112) in 50 mM HEPES pH 7.5, 0.01% polysorbate 20, 1 mM EGTA and 10 mM MnCl 2. Compounds were diluted in DMSO, and assay was initiated by mixing 160 nl of compound with 16 μL of assay mixture, resulting in a final DMSO
concentration of 1%. Reactions were mixed for 30 s on an orbital shaker and incubated for 1 h at

[3] = up to a maximal test concentration of 1 μM

T1 sequence (P62942 whole entry): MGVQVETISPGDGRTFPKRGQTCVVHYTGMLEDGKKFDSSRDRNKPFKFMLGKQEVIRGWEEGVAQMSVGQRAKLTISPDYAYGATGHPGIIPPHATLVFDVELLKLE

| SMILES | IC50 [1] | IC50 ([2]; MDA-MB-468 cells) | IC50 (p-P70S6K Thr389) | also measured |
| --- | --- | --- | --- | --- |
| C=CC(=O)N1CCN(c2nc(=O)n(-c3c(C)ccnc3C(C)C)c3nc(-c4c(O)cccc4F)c(F)cc23)[C@@H](C)C1 [sotorasib] | – | – | – | antitumor activity (tumor regressions) in NCI-H2122 CDX model (NCI-H2122 NSCLC CDX): Neither; also recorded: only modest inhibition of tumor growth |
| CO[C@H]1C[C@@H]2CC[C@@H](C)[C@@](O)(O2)C(=O)C(=O)N2CCCC[C@H]2C(=O)O/C([C@H](C)C[C@@H]2CC[C@@H](OC(=O)NCCOCCOCCOCCOCCOCCOCCOCCOCCC(=O)N3CCc4cc(Cn5nc(-c6ccc7oc(N)nc7c6)c6c(N)ncnc65)ccc4C3)[C@H](OC)C2)=C/C(=O)[C@H](C)/C=C(\C)[C@@H](O)[C@@H](OC)C(=O)[C@H](C)C[C@H](C)/C=C/C=C/C=C/1C [compound 33] | > 1000 nM | 320 nM | 80 nM | – |
| CO[C@H]1C[C@@H]2CC[C@@H](C)[C@@](O)(O2)C(=O)C(=O)N2CCCC[C@H]2C(=O)O[C@H]([C@H](C)C[C@@H]2CC[C@@H](OC(=O)NCCOCCOCCOCCOCCOCCOCCOCCOCCC(=O)NCCCCn3nc(-c4ccc5oc(N)nc5c4)c4c(N)ncnc43)[C@H](OC)C2)CC(=O)[C@H](C)/C=C(\C)[C@@H](O)[C@@H](OC)C(=O)[C@H](C)C[C@H](C)/C=C/C=C/C=C/1C [compound 29] | 3.6 nM | 1.7 nM | 0.61 nM | – |
| CO[C@H]1C[C@@H]2CC[C@@H](C)[C@@](O)(O2)C(=O)C(=O)N2CCCC[C@H]2C(=O)O[C@H]([C@H](C)C[C@@H]2CC[C@@H](OCCCCc3cn(CCOCCOCCOCCOCCOCCOCCOCCOCCC(=O)NCCCCn4nc(-c5cc6cc(O)ccc6[nH]5)c5c(N)ncnc54)nn3)[C@H](OC)C2)CC(=O)[C@H](C)/C=C(\C)[C@@H](O)[C@@H](OC)C(=O)[C@H](C)C[C@H](C)/C=C/C=C/C=C/1C [compound 18] | 18 nM | 1.4 nM | 0.28 nM | selectivity for mTORC1 over mTORC2 ([2]; pAKT versus p4EBP1 inhibition, MDA-MB-468 cells): approximately 13 fold |
| CO[C@H]1C[C@@H]2CC[C@@H](C)[C@@](O)(O2)C(=O)C(=O)N2CCCC[C@H]2C(=O)O[C@H]([C@H](C)C[C@@H]2CC[C@@H](OCCCCc3cn(CCOCCOCCOCCOCCOCCOCCOCCOCCC(=O)N4CCc5cc(Cn6nc(-c7ccc8oc(N)nc8c7)c7c(N)ncnc76)ccc5C4)nn3)[C@H](OC)C2)CC(=O)[C@H](C)/C=C(\C)[C@@H](O)[C@@H](OC)C(=O)[C@H](C)C[C@H](C)/C=C/C=C/C=C/1C [compound 21] | 8.8 nM | 0.44 nM | 0.13 nM | – |
| COc1ccc(-c2ccc3ncc4c(c3c2)n(-c2ccc(N3CCN(C(=O)CCOCCOCCOCCOCCOCCOCCn5cc(CCCCO[C@@H]6CC[C@@H](C[C@@H](C)[C@@H]7CC(=O)[C@H](C)/C=C(\C)[C@@H](O)[C@@H](OC)C(=O)[C@H](C)C[C@H](C)/C=C/C=C/C=C(\C)[C@@H](OC)C[C@@H]8CC[C@@H](C)[C@@](O)(O8)C(=O)C(=O)N8CCCC[C@H]8C(=O)O7)C[C@H]6OC)nn5)CC3)c(C(F)(F)F)c2)c(=O)n4C)cn1 [compound 26] | 0.74 nM | 0.08 nM | 0.03 nM | – |
| CO[C@H]1C[C@@H]2CC[C@@H](C)[C@@](O)(O2)C(=O)C(=O)N2CCCC[C@H]2C(=O)O[C@H]([C@H](C)C[C@@H]2CC[C@@H](OCCCCc3cn(CCOCCOCCOCCOCCOCCOCCOCCOCCC(=O)NCCCCn4nc(-c5ccc6oc(N)nc6c5)c5c(N)ncnc54)nn3)[C@H](OC)C2)CC(=O)[C@H](C)/C=C(\C)[C@@H](O)[C@@H](OC)C(=O)[C@H](C)C[C@H](C)/C=C/C=C/C=C/1C [compound 16] | 3.1 nM | 1.1 nM | 0.42 nM | – |
| CC(C)n1nc(-c2ccc3oc(N)nc3c2)c2c(N)ncnc21 [compound 5, sapanisertib, reference compound] | 1.8 nM | – | – | inhibition of tumor p4EBP1 (tumor p4EBP1; 4 h after intraperitoneal dosing at 1 mg/kg): > 80% |
| CO[C@@H](C[C@@H]1CC[C@@H](C)[C@](O)(C(=O)C(=O)N2CCCC[C@H]2C(=O)O)O1)/C(C)=C/C=C/C=C/[C@@H](C)C[C@@H](C)C(=O)[C@H](OC)[C@H](O)/C(C)=C/[C@@H](C)C(=O)/C=C\[C@H](C)C[C@@H]1CC[C@@H](OCCCCc2cn(CCOCCOCCOCCOCCOCCOCCOCCOCCC(=O)NCCCCn3nc(-c4ccc5oc(N)nc5c4)c4c(N)ncnc43)nn2)[C@H](OC)C1 [compound 32] | 450 nM | 180 nM | 59 nM | – |
| CO[C@H]1C[C@@H]2CC[C@@H](C)[C@@](O)(O2)C(=O)C(=O)N2CCCC[C@H]2C(=O)O[C@H]([C@H](C)C[C@@H]2CC[C@@H](OCCOCc3cn(CCOCCOCCOCCOCCOCCOCCOCCOCCC(=O)NCCCCn4nc(-c5cc6cc(O)ccc6[nH]5)c5c(N)ncnc54)nn3)[C@H](OC)C2)CC(=O)[C@H](C)/C=C(\C)[C@@H](O)[C@@H](OC)C(=O)[C@H](C)C[C@H](C)/C=C/C=C/C=C/1C [compound 17, reference compound] | 24 nM | 2.5 nM | 0.47 nM | – |
| CO[C@H]1C[C@@H]2CC[C@@H](C)[C@@](O)(O2)C(=O)C(=O)N2CCCC[C@H]2C(=O)O[C@H]([C@H](C)C[C@@H]2CC[C@@H](OC(=O)NCCOCCOCCOCCOCCOCCOCCOCCOCCC(=O)NCCS(=O)(=O)c3ccc(C(=O)N4CCOc5ccc(-c6ccc(N)nc6)cc5C4)c(C)c3F)[C@H](OC)C2)CC(=O)[C@H](C)/C=C(\C)[C@@H](O)[C@@H](OC)C(=O)[C@H](C)C[C@H](C)/C=C/C=C/C=C/1C [compound 31] | 2.9 nM | 0.7 nM | 0.23 nM | – |
| CO[C@H]1C[C@@H]2CC[C@@H](C)[C@@](O)(O2)C(=O)C(=O)N2CCCC[C@H]2C(=O)O[C@H]([C@H](C)C[C@@H]2CC[C@@H](OCCCCc3cn(CCOCCOCCOCCOCCOCCOCCOCCOCCC(=O)NCCCCn4nc(-c5ccc6oc(N)nc6c5)c5c(N(C)C)ncnc54)nn3)[C@H](OC)C2)CC(=O)[C@H](C)/C=C(\C)[C@@H](O)[C@@H](OC)C(=O)[C@H](C)C[C@H](C)/C=C/C=C/C=C/1C [compound 23] | > 1000 nM | > 1000 nM | 0.29 nM | pAKT inhibition [1, 3]: inactive; p4EBP1 inhibition [2, 3]: inactive |
| CO[C@H]1C[C@@H]2CC[C@@H](C)[C@@](O)(O2)C(=O)C(=O)N2CCCC[C@H]2C(=O)O[C@H]([C@H](C)C[C@@H]2CC[C@@H](OCCCCc3cn(CCOCCOCCOCCOCCOCCOCCC(=O)NCCCCn4nc(-c5ccc6oc(N)nc6c5)c5c(N)ncnc54)nn3)[C@H](OC)C2)CC(=O)[C@H](C)/C=C(\C)[C@@H](O)[C@@H](OC)C(=O)[C@H](C)C[C@H](C)/C=C/C=C/C=C/1C [compound 27] | 5.2 nM | 1.1 nM | 0.26 nM | – |
| CO[C@H]1C[C@@H]2CC[C@@H](C)[C@@](O)(O2)C(=O)C(=O)N2CCCC[C@H]2C(=O)O[C@H]([C@H](C)C[C@@H]2CC[C@@H](OCCO)[C@H](OC)C2)CC(=O)[C@H](C)/C=C(\C)[C@@H](O)[C@@H](OC)C(=O)[C@H](C)C[C@H](C)/C=C/C=C/C=C/1C [compound 4, everolimus, reference compound] | > 1000 nM | > 1000 nM | 0.07 nM | effect on tumor p4EBP1 levels (tumor p4EBP1; single dose (38, 40 ip; everolimus 5 mg/kg oral)): minimal effect |
| CO[C@H]1C[C@@H]2CC[C@@H](C)[C@@](O)(O2)C(=O)C(=O)N2CCCC[C@H]2C(=O)O[C@H]([C@H](C)C[C@@H]2CC[C@@H](OCCOCc3cn(CCOCCOCCOCCOCCOCCOCCOCCOCCC(=O)NCCCCn4nc(-c5ccc6oc(N)nc6c5)c5c(N)ncnc54)nn3)[C@H](OC)C2)CC(=O)[C@H](C)/C=C(\C)[C@@H](O)[C@@H](OC)C(=O)[C@H](C)C[C@H](C)/C=C/C=C/C=C/1C [compound 3, RapaLink-1, reference compound] | 6.7 nM | 1.7 nM | 0.93 nM | – |
| CO[C@H]1C[C@@H]2CC[C@@H](C)[C@@](O)(O2)C(=O)C(=O)N2CCCC[C@H]2C(=O)O[C@H]([C@H](C)C[C@@H]2CC[C@@H](O)[C@H](OC)C2)C[C@@H](O)[C@H](C)/C=C(\C)[C@@H](O)[C@@H](OC)C(=O)[C@H](C)C[C@H](C)/C=C/C=C/C=C/1C [compound 11, C32-hydroxy rapamycin] | – | – | – | Kd (FKBP12): 13.3 nM |
